Assay results as given in patent publication US20050282818A1, “Ubiquitin ligase inhibitors” (Rigel Pharmaceuticals, Inc., priority 2004, published 2005).
Like-named read-outs stand apart in the source and are kept apart here.

Legend:
A549 cells = assay: Cell proliferation PAD assay, A549; type: cell-based; conditions: Homo sapiens, 48 hours
How it was run: (§1)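 2,000 cells/well; compound added at 24 h (duplicate, 6.3-fold series, 10 mM stock, 500× dilution into wells); 48 h, 37 °C/5% CO2. Formamide fix, DAPI stain, image-based counts of live (proliferation), apoptotic, dead cells.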

H1299 cells = assay: Cell proliferation PAD assay, H1299; type: cell-based; conditions: Homo sapiens, 48 hours
How it was run: as §1

TRAF6/Uev1A/Ubc13 = target: T1, TRAF6/Uev1A/Ubc13 (Homo sapiens, UniProt Q9Y4K3); assay: TRAF6/Uev1A/Ubc13 plate-based ubiquitin ligase assay; type: biochemical
T1 sequence (Q9Y4K3 1-522): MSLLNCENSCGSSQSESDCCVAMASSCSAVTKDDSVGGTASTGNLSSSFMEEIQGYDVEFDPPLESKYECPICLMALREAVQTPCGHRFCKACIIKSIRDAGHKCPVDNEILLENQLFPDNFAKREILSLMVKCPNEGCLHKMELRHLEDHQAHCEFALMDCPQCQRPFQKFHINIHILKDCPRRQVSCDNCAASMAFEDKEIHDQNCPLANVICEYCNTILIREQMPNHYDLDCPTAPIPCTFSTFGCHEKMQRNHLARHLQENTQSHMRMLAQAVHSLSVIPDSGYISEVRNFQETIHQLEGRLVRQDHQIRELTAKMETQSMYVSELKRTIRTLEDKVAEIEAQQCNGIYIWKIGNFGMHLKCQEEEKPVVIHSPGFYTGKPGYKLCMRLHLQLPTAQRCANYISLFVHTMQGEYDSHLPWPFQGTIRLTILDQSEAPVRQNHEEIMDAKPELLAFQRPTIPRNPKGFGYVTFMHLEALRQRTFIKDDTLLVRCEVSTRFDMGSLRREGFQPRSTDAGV
How it was run: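 Ligase activity was read as luminescence from anti-Flag/HRP detection of Flag-ubiquitin bound to casein-blocked Ni-plates alongside His-ubiquitin after a 1 h room-temperature reaction. Buffer: 62.5 mM Tris pH 7.5, 6.25 mM MgCl2, 1.0 mM DTT, 2 μM ATP; E1, Uev1a/Ubc13 and TRAF6 added last to start. IC50s derived across compound concentrations.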

[1] = NCI-H1299, 3pt, read-out: H1299 3pt
[2] = NCI-H1299, 6pt, read-out: H1299 6pt

Compound	IC50 (A549 cells; 3pt, read-out: A549 3pt)	IC50 (H1299 cells; [1])	IC50 (TRAF6/Uev1A/Ubc13)	IC50 (A549 cells; 6pt, read-out: A549 6pt)	IC50 (H1299 cells; [2])
Cc1ccnc(N2CCN(c3ccc([N+](=O)[O-])c4nonc34)CC2)c1 [compound 154, 4-[4-(4-methylpyridin-2-yl)piperazin-1-yl]-7-nitro-2,1,3-benzoxadiazole]	≥ 20 µM	≥ 20 µM	≥ 20 µM		
O=[N+]([O-])c1ccc(N2CCN(c3ccc4ccccc4n3)CC2)c2nonc12 [compound 155, 2-[4-(7-nitro-2,1,3-benzoxadiazol-4-yl)piperadin-1-yl]quinoline]	≥ 20 µM	≥ 20 µM	1 to 20 µM		
Cc1cccnc1N1CCN(c2ccc([N+](=O)[O-])c3nonc23)CC1 [compound 156, 4-[4-(3-methylpyridin-2-yl)piperazin-1-yl]-7-nitro-2,1,3-benzoxadiazole]	≥ 20 µM	≥ 20 µM	≥ 20 µM		
O=c1[nH]c2ccccc2n1C1CCN(c2ccc([N+](=O)[O-])c3nonc23)CC1 [compound 160, 1-[1-(7-nitro-2,1,3-benzoxadiazol-4-yl)piperidin-4-yl]-1,3-dihydro-2H-benzimidazol-2-one]	≥ 20 µM	≥ 20 µM	≥ 20 µM		
CC1CN(c2ccc([N+](=O)[O-])c3nonc23)CC(C)O1 (stereo not shown) [compound 161, 4-(2,6-dimethylmorpholin-4-yl)-7-nitro-2,1,3-benzoxadiazole]	≥ 20 µM	≥ 20 µM	≥ 20 µM		
Cc1cccc(N2CCN(c3ccc([N+](=O)[O-])c4nonc34)CC2)n1 [compound 162, 4-[4-(6-methylpyridin-2-yl)piperazin-1-yl]-7-nitro-2,1,3-benzoxadiazole]	≥ 20 µM	≥ 20 µM	≥ 20 µM		
COc1ccc(S(=O)(=O)N2CCN(c3ncc(C(F)(F)F)cc3Cl)CC2)c2nonc12 [compound 163, 4-({4-[3-chloro-5-(trifluoromethyl)pyridin-2-yl]piperazin-1-yl}sulfonyl)-7-methoxy-2,1,3-benzoxadiazole]	≥ 20 µM	≥ 20 µM	1 to 20 µM		
O=S(=O)(c1ccc(F)c2nonc12)N1CCN(c2ncccc2C(F)(F)F)CC1 [compound 165, 4-fluoro-7-({4-[3-(trifluoromethyl)pyridin-2-yl]piperazin-1-yl}sulfonyl)-2,1,3-benzoxadiazole]	1 to 20 µM	≥ 20 µM	≥ 20 µM	≥ 20 µM	≥ 20 µM
O=S(=O)(c1ccc(N2CCN(c3ncccc3C(F)(F)F)CC2)c2nonc12)N1CCN(c2ncccc2C(F)(F)F)CC1 [compound 166, 4-{4-[3-(trifluoromethyl)pyridin-2-yl]piperazin-1-yl}-7-({4-[3-(trifluoromethyl)pyridin-2-yl]piperazin-1-yl}sulfonyl)-2,1,3-benzoxadiazole]			1 to 20 µM	1 to 20 µM	≥ 20 µM
O=S(=O)(c1ccc(Cl)c2nonc12)N1CCC(O)(c2ccc(Cl)cc2)CC1 [compound 168, 1-[(7-chloro-2,1,3-benzoxadiazol-4-yl)sulfonyl]-4-(4-chlorophenyl)piperidin-4-ol]	1 to 20 µM	1 to 20 µM	≥ 20 µM	≥ 20 µM	≥ 20 µM
O=S(=O)(c1ccc(Cl)c2nonc12)N1CCN(c2ccc(O)cc2)CC1 [compound 172, 4-{4-[(7-chloro-2,1,3-benzoxadiazol-4-yl)sulfonyl]piperazin-1-yl}phenol]	1 to 20 µM	1 to 20 µM	≥ 20 µM	≥ 20 µM	≥ 20 µM
O=S(=O)(c1ccc(N2CCN(c3ccc(O)cc3)CC2)c2nonc12)N1CCN(c2ccc(O)cc2)CC1 [compound 173, 4-[4-({7-[4-(4-hydroxyphenyl)piperazin-1-yl]-2,1,3-benzoxadiazol-4-yl}sulfonyl)piperazin-1-yl]phenol]			≥ 20 µM	1 to 20 µM	1 to 20 µM
COC(=O)c1ccc(NS(=O)(=O)c2ccc(Sc3cccc4cccnc34)c3nonc23)cc1 [compound 174, methyl 4-({[7-(quinolin-8-ylthio)-2,1,3-benzoxadiazol-4-yl]sulfonyl}amino)benzoate]	1 to 20 µM	1 to 20 µM	≥ 20 µM	1 to 20 µM	1 to 20 µM
N#Cc1cccnc1N1CCN(S(=O)(=O)c2ccc(Sc3cccc4cccnc34)c3nonc23)CC1 [compound 176, 2-(4-{[7-(quinolin-8-ylthio)-2,1,3-benzoxadiazol-4-yl]sulfonyl}piperazin-1-yl)nicotinonitrile]	≥ 20 µM	≥ 20 µM	1 to 20 µM	≥ 20 µM	≥ 20 µM
O=S(=O)(c1ccc(N2CCN(c3ccccc3)CC2)c2nonc12)N1CCN(c2ccccc2)CC1 [compound 187, 4-(4-phenylpiperazin-1-yl)-7-[(4-phenylpiperazin-1-yl)sulfonyl]-2,1,3-benzoxadiazole]	≥ 20 µM	≥ 20 µM	1 to 20 µM		
CN1CCN(S(=O)(=O)c2ccc(Sc3cccc4cccnc34)c3nonc23)CC1 [compound 191, 8-({7-[(4-methylpiperazin-1-yl)sulfonyl]-2,1,3-benzoxadiazol-4-yl}thio)quinoline]	1 to 20 µM	1 to 20 µM	≥ 20 µM		
Nc1ccc(S(=O)(=O)Nc2ccnc(Cl)c2)c2nonc12 [compound 195, 7-amino-N-(2-chloropyridin-4-yl)-2,1,3-benzoxadiazole-4-sulfonamide]	≥ 20 µM	≥ 20 µM	≥ 20 µM		
CC1CN(c2ccc3nonc3c2S(=O)(=O)N2CC(C)OC(C)C2)CC(C)O1 (stereo not shown) [compound 205, 5-(2,6-dimethylmorpholin-4-yl)-4-[(2,6-dimethylmorpholin-4-yl)sulfonyl]-2,1,3-benzoxadiazole]	≥ 20 µM	1 to 20 µM	≥ 20 µM		
CC1CN(c2ccc(S(=O)(=O)N3CC(C)OC(C)C3)c3nonc23)CC(C)O1 (stereo not shown) [compound 211, 4-(2,6-dimethylmorpholin-4-yl)-7-[(2,6-dimethylmorpholin-4-yl)sulfonyl]-2,1,3-benzoxadiazole]	≥ 20 µM	≥ 20 µM	≥ 20 µM		
CC1CN(S(=O)(=O)c2ccc(Sc3cccc4cccnc34)c3nonc23)CC(C)O1 (stereo not shown) [compound 213, 8-({7-[(2,6-dimethylmorpholin-4-yl)sulfonyl]-2,1,3-benzoxadiazol-4-yl}thio)quinoline]	1 to 20 µM	≥ 20 µM	≥ 20 µM		
Nc1ccc2cnn(S(=O)(=O)c3ccc(Cl)c4nonc34)c2c1 [compound 221, 1-[(7-chloro-2,1,3-benzoxadiazol-4-yl)sulfonyl]-1H-indazol-6-amine]	≥ 20 µM	≥ 20 µM	≥ 20 µM		
O=S(=O)(Nc1ccc2[nH]ncc2c1)c1ccc(Sc2cccc3cccnc23)c2nonc12 [compound 224, N-1H-indazol-5-yl-7-(quinolin-8-ylthio)-2,1,3-benzoxadiazole-4-sulfonamide]	1 to 20 µM	≥ 20 µM	≥ 20 µM		
O=S(=O)(c1ccc(Cl)c2nonc12)N1CCC(Oc2ccccc2C(F)(F)F)CC1 [compound 230, 4-chloro-7-({4-[2-(trifluoromethyl)phenoxy]piperidin-1-yl}sulfonyl)-2,1,3-benzoxadiazole]	1 to 20 µM	1 to 20 µM	1 to 20 µM		
